pKi: −log10 of the molar value.

In the assay the target is T1, Vesicular acetylcholine transporter (Torpedo californica, UniProt P81721).
T1 sequence (P81721 whole entry): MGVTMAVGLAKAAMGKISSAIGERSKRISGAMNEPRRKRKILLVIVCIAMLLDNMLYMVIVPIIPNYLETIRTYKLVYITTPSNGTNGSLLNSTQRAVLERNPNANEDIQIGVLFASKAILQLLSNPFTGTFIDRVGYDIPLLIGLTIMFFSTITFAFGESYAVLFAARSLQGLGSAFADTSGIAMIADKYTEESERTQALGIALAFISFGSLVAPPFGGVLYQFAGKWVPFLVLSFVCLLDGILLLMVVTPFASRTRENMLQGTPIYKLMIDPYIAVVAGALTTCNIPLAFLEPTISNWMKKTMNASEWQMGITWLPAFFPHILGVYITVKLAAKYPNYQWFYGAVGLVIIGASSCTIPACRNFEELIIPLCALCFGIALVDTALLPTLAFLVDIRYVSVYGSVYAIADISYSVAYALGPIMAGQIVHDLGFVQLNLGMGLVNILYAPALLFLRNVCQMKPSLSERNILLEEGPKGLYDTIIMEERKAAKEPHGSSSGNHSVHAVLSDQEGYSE
The assay is described as follows: In vitro binding affinity to vesamicol receptor using [3H]vesamicol. On the set-up: species or system Tetronarce californica.
As usually defined, the pKi is −log10 of the Ki, conventionally taken in molar units. As to `O[C@@H]1CCN(Cc2ccccc2I)C[C@H]1N1CCC(c2ccccc2)CC1`, the pKi was 9.83.

`O[C@@H]1CCN(Cc2ccc(I)cc2)C[C@H]1N1CCC2(CCc3ccccc32)CC1` showed a pKi of 9.10.

The molecule `O[C@@H]1Cc2ccccc2C[C@H]1N1CCC2(C=Cc3c(Br)cccc32)CC1` had a pKi of 9.67.

`O[C@@H]1CCCC[C@H]1N1CCC2(CCc3ccccc32)CC1` had a negative-log Ki (pKi) of 8.12.

As for `O[C@@H]1CCN(Cc2cccc(I)c2)C[C@H]1N1CCC2(CCCc3ccccc32)CC1`, the pKi is 9.07.

The molecule `O[C@@H]1Cc2ccccc2C[C@H]1N1CCC2(CC1)C(Br)=Cc1ccccc12` gave a pKi of 9.39.

With `O[C@@H]1Cc2ccccc2C[C@H]1N1CCC2(C=Cc3ccc(Br)cc32)CC1`, the pKi was 8.85.

Molecule `O[C@@H]1Cc2ccccc2C[C@H]1N1CCC2(C=Cc3cc(Br)ccc32)CC1` showed a negative logarithm of the Ki (pKi) of 9.57.

`O[C@@H]1CCN(Cc2ccccc2I)C[C@H]1N1CCC2(CCc3ccccc32)CC1`: the pKi is 9.01.

Take `O[C@@H]1CCN(Cc2cccc(I)c2)C[C@H]1N1CCC(c2ccccc2)CC1`: the pKi was 10.20.

For `O[C@@H]1CCN(Cc2ccccc2I)C[C@H]1N1CCC2(CCCc3ccccc32)CC1`, the pKi is 8.24.

`O[C@@H]1CCN(Cc2ccc(I)cc2)C[C@H]1N1CCC(c2ccccc2)CC1` had a pKi of 10.30.

As for `O[C@@H]1CCN(Cc2ccc(F)cc2)C[C@H]1N1CCC2(CCCc3ccccc32)CC1`, the pKi is 8.58.

In turn, `O[C@@H]1CCN(Cc2cccc(I)c2)C[C@H]1N1CCC2(C=Cc3ccccc32)CC1` had a pKi of 9.58.

On to `O[C@@H]1CCN(Cc2ccccc2I)C[C@H]1N1CCC2(C=Cc3ccccc32)CC1`, for which the pKi was 9.10.

Consider `O[C@@H]1CCN(Cc2ccc(I)cc2)C[C@H]1N1CCC2(CCCc3ccccc32)CC1`, for which the negative-log Ki (pKi) is 9.20.

Take `O[C@@H]1CCCC[C@H]1N1CCC2(C=Cc3ccccc32)CC1`: the pKi was 8.16.

For the molecule `Nc1cccc2c1C[C@@H](N1CCC(c3ccccc3)CC1)[C@H](O)C2`, the pKi is 11.19.

In the case of `O[C@@H]1CCN(Cc2ccc(F)cc2)C[C@H]1N1CCC2(CCc3ccccc32)CC1`, the pKi is 9.44.

Consider `O[C@@H]1Cc2ccccc2C[C@H]1N1CCC2(CCCc3ccccc32)CC1`, for which the pKi is 7.74.

`O[C@@H]1Cc2ccccc2C[C@H]1N1CCC2(CCc3ccccc32)CC1` had a pKi of 9.44.

`O[C@@H]1Cc2ccccc2C[C@H]1N1CCC2(C=Cc3ccccc32)CC1` gave a pKi of 9.92.

Molecule `O[C@@H]1CCCC[C@H]1N1CCC2(CCCc3ccccc32)CC1` had a pKi of 7.62.

In turn, `O[C@@H]1CCN(Cc2ccc(F)cc2)C[C@H]1N1CCC2(C=Cc3ccccc32)CC1` had a pKi of 9.61.

Take `O[C@@H]1CCN(Cc2ccc(I)cc2)C[C@H]1N1CCC2(C=Cc3ccccc32)CC1`: the pKi was 9.12.

The values above are taken from ChEMBL document CHEMBL1127611 (J Med Chem, 1994).
